Experimental data as given in publication PMC6163344, “A Novel Cell Penetrating Peptide for the Differentiation of Human Neural Stem Cells” (Biomolecules, 2018).

What was measured:
[1] = system: ReNcell VM (RVM) cells; assay: 24 h cytotoxicity, CCK-8 (WST-8) or PrestoBlue; format: cell-based, human; settings: 24 h treatment
Protocol: Sterile peptide solutions for cytotoxicity testing were prepared from stock by diluting with deionized (DI) water and filtering through a 0.22 µm polytetrafluoroethylene (PTFE) membrane. Because of aggregations and decreased solubility in water at high concentrations, a standard curve was used to determine the concentrations of the filtered peptides. Briefly, 5 µL of sample or serial diluted peptide stocks with known concentrations prepared from weighed powder, were aliquoted into wells of a 96-well half area plate. Then, 45 µL of methanol was added to each well to fully solubilize all the peptides. Absorbance measurements at 554 nm (650 nm as reference) were taken on a Tecan infinite M200 Pro plate reader (Tecan Group, Männedorf, Switzerland). After the calculation of stock concentrations, peptides were further diluted with cell culture media for treatment.
There were 10,000 ReNcell VM cells (passages below 15) that were seeded in each well, with 100 µL of RVM cell culture media supplemented with the growth factors bFGF and EGF.
For the PepB series (Figure 1 and Table 1) testing, the RVM cells were incubated with peptides for 24 h. […] After incubation for 1 h, for WST-8, a Tecan infinite M200 Pro plate reader was utilized to acquire absorbance measurements at 450 nm (650 nm as reference) and normalized to the untreated controls.

[2] = system: β-III tubulin expression in ReNcell VM; assay: RVM differentiation, quantitative immunocytochemistry for β-III tubulin; format: cell-based, human; settings: 0.1 µM, N = 3
Protocol: (§1) The laminin solution was removed prior to cell seeding. 2 × 10^4 ReNcell VM between passages 8 and 10 were seeded in the 8-well chamber slides with 400 µL of proliferation media. The cells were grown to 70% confluency. Differentiation for RVM is initiated by growth factor withdrawal or in combination with RA or RA-PepB3. The media were replaced every 48–72 h for the duration of the differentiation. Compound treatment was only performed for one week, at which point all cells were commonly grown in growth factor withdrawal media.
(§2) Cells were fixed with 4% PFA at room temperature for 15 min. After rinsing with PBS, blocking and permeabilization were done simultaneously using 5% donkey serum and 0.3% Triton-X 100 in PBS for 30 min at room temperature. The cells were rinsed with PBS and primary antibodies were applied for 2 h at room temperature. The cells were rinsed again with PBS and secondary antibodies were applied for 1 h at room temperature. […] The cells positive for β-III tubulin and MAP2 were counted using ImageJ. […] The fluorescence channels were separated, background removed, and contrast enhanced. The number of DAPI positive cells were counted using an in-house coded nuclei counter. […] The channels were then re-merged and the cells positive for β-III tubulin and MAP2 were manually counted. […]

[3] = system: MAP2 expression in ReNcell VM; assay: RVM differentiation, quantitative immunocytochemistry for MAP2; format: cell-based, human; settings: 0.1 µM, compound treatment for the initial one week, four weeks of differentiation, N = 3
Protocol: as §1, §2

[4] = system: ReNcell VM (RVM) cells; settings: PrestoBlue, N = 3
[5] = parameters: method as in PMID 1898007; settings: reported solubility limit in water; cited from earlier work
Source text: Neurogenesis is an important biological process under intense investigation. Neurodegenerative diseases such as Alzheimer’s and Parkinson’s are devastating due to the fact that neurons cannot be replaced in the diseased areas of the brain [1]. […] To exert its effects ... || Retinoic acid is a potent morphogen used to differentiate stem cells towards the neural lineage.

[6] = system: undifferentiated RVM cells cultured in Matrigel; settings: microarray chip, read-out: viability IC50; cited from earlier work

CC1=C(/C=C/C(C)=C/C=C/C(C)=C/C(=O)O)C(C)(C)CCC1 [RA, All-Trans-Retinoic Acid]
fraction of RVM cells killed ([1]; 10 µM, PrestoBlue or Cell Counting Kit-8, N = 3): more than 50%
concentration at which RVM cells started significantly dying ([1]; 0–10 µM tested, N = 3): 5 µM
β-III tubulin expression, fold versus growth factor withdrawal control ([2]; compound treatment for the initial one week, four weeks of differentiation): 2 fold
β-III tubulin expression, fold versus no growth factor control ([2]; one week of differentiation): 1.5 fold
MAP2 expression, fold versus control [3]: 2.5 fold
proliferation versus controls after 24 h ([4]; 5 and 10 µM RA): significantly less proliferation than the controls
proliferation versus controls by day three ([4]; all tested concentrations of RA, medium refreshed every 48 h): significantly reduced rates of proliferation
solubility in aqueous environments [5]: < 0.2 µM
IC50 [6]: 740 nM
